{"source": "patent US5869494A", "about": "“Uses for barbituric acid analogs” (priority 1997, dated 1999)", "key": {"[1]": {"test_system": "MT-4 cells", "assay": "Toxicity to MT-4 cells", "assay_type": "cell-based, human", "conditions": "drug doses of the HIV-1 test (75-125 μg/ml)", "experimental": "After 2 h at 37° C., treated and control HIV-1 samples were added to the indicator MT-4 cells (cultured human T cells) in the presence of 2 μg/ml POLYBRENE™ for 2 h. After washing, MT-4 cells were cultured in the presence of drug-treated or control (untreated) HIV-1. Cell viability of MT-4 cells was determined by the trypan blue dye exclusion method."}, "[2]": {"test_system": "Herpes simplex virus (HSV)", "assay": "Inactivation of Herpes simplex virus (plaque assay on Vero cells)", "assay_type": "cell-based", "conditions": "for PFU/ml: control 7.1 × 10^5", "experimental": "The control sample received vehicle only. After the incubation period, samples were serially diluted and 0.1 ml of each dilution and the undiluted samples were inoculated into monolayers of Vero cells (African green monkey kidney cells). Overlay medium was added and the monolayers were incubated at 37° C. After 3 days of incubation, the overlay medium was removed, and the monolayer cells were fixed with methanol and treated with Giemsa stain."}, "[3]": {"test_system": "T cells", "assay": "Modulation of T cells in HIV-1 positive subjects", "assay_type": "in vivo, human", "conditions": "4.3 mg/kg for 15 days; one subject; before treatment 425; normal range 650-1330", "excerpt": "Blood samples were drawn before and after on day 15 or 30 from the initiation of treatment for regular CBC profile. […] The normal range of T cells is 650-1330."}, "[4]": {"assay": "In vivo toxicity, single escalating oral dose", "conditions": "BALB/c mice", "experimental": "A single escalating dose of the test drag is a procedure where a dose is administered to a group of mice (in this case n=3). If toxicity is not elicited, the next higher dose is given to a fresh group of mice and so on until toxicity is observed."}, "[5]": {"test_system": "human fibrosarcoma HT-1080 cells", "assay": "Effect on human fibrosarcoma HT-1080 cells (trypan blue dye exclusion)", "assay_type": "cell-based", "conditions": "for viability at 25 µg/mL / viability at 50 µg/mL / viability at 100 µg/mL / viability at 150 µg/mL: HT-1080, read-out: Percent survival; for viability at 25 µg/mL: 25 μg/ml; for viability at 50 µg/mL: 50 μg/ml", "experimental": "Human fibrosarcoma cells were cultured in Minimum essential medium (Eagle) with non-essential amino acids and Earls balanced salt solution supplemented with 10% heat-inactivated fetal bovine serum. Cells (5×10^3 in 0.5 ml of growth medium) were plated in 16 well plates and incubated at 37° C. in a humidified atmosphere of 5% CO2 in air for 24 h. Cells were then treated with different doses of C1. Control wells received vehicle only (<0.5% ethanol in saline). After further incubation periods of 24 and 48 h, the viability of cells was determined by trypan blue dye exclusion method."}, "[6]": {"test_system": "DU-145 human prostate tumors", "assay": "Human DU-145 prostate tumors transplanted into athymic mice, oral treatment", "assay_type": "in vivo, athymic BALB/c nude-nu mice", "conditions": "400 mg/kg oral", "excerpt": "Male athymic BALB/c nude-nu mice (6-8 weeks old, 18-22 g each) were purchased from Harlan Sprague-Dawley, Inc. (Indianapolis, Ind.) and maintained in a germ-free environment. The mice had free access to sterile food and water. Human prostate DU-145 cells (1×10^7) were transplanted subcutaneously into athymic mice. Solid tumors appearing after 30 days were cut into small pieces (2-2 mm) and transplanted into native mice. […] The treatment schedule consisted of a single dose on alternate days. The control group of animals (3 mice) received vehicle only. […] At this point, the treatment was terminated and animals were kept under observation for the regrowth of prostate tumors.\nformula % TGI = 100(1Vt /Vc), where Vt and Vc are the […]"}, "[7]": {"assay": "In vivo toxicity, repeat oral dose", "design": "species or system BALB/c mice", "conditions": "for mortality: group of three mice", "experimental": "In preliminary repeat dose studies, a suspension of C1 in polyethylene glycol (C1 is mixed with a 2.5% solution of polyethylene glycol and homogenized in a sterile dounce homogenizer until it flows freely through a 22×11/2\" with 11/4 mm ball feeding needle) was administered orally to a group of three BALB/c mice."}, "[8]": {"test_system": "human prostate tumors", "assay": "Established human prostate tumors implanted in mice, intramuscular treatment", "assay_type": "in vivo", "conditions": "100 mg/kg intramuscular, alternate days, after 5 weeks", "experimental": "Similar experiments were carried out where implanted human prostate tumors (2×2 mm) were allowed to become established. Eight days later, the tumor size was ≈5×5 mm. Treatment was initiated which consisted of intramuscular injections of C1 (100 mg/kg) given on alternate days. After 5 weeks of treatment, tumors were not detectable by palpation in 2 of 3 animals. […] Untreated control mice (n=3), had tumors at 5 weeks of average size of 10×9mm."}, "[9]": {"conditions": "Vero, 150 μg/ml, 24 h at 37° C."}, "[10]": {"conditions": "Homo sapiens, 24 h, control 92.3 ± 3.1"}, "[11]": {"conditions": "Homo sapiens, 48 h, control 92.4 ± 3.1"}}, "note": "“Also recorded” adds a separate entry of the source. Where two headings read alike, the source gives them in different places.", "data": [{"compound": "CCCCN1C(=O)CC(=O)N(CCCC)C1=S", "note": "[Compound C1, 4,6(1H, 5H)-pyrimidinedione, 1,3-dibutyldihydro-2-thioxo]", "values": [{"measurement": "toxicity to the MT-4 cells", "setting": "[1]", "value": "not toxic to the MT-4 cells"}, {"measurement": "PFU/ml", "setting": "[2]; 30 μg/ml, 24 h at 37° C.", "value": "2.1 × 10^5 PFU/ml"}, {"measurement": "PFU/ml", "setting": "[2]; 120 μg/ml, 24 h at 37° C.", "value": "6.5 × 10^5 PFU/ml"}, {"measurement": "PFU/ml", "setting": "[2]; 150 μg/ml, 24 h at 37° C.", "value": "7.5 × 10^5 PFU/ml"}, {"measurement": "log reduction at 120 µg/mL", "setting": "[2]; Vero, 24 h", "value": 2.04}, {"measurement": "killing at 120 µg/mL", "setting": "[2]; Vero, 24 h, read-out: % Inactivation", "value": 99, "unit": "%"}, {"measurement": "killing at 30 µg/mL", "setting": "[2]; Vero, 30 μg/ml, 24 h at 37° C.", "value": 70.4, "unit": "%"}, {"measurement": "log reduction at 30 µg/mL", "setting": "[2]; Vero, 30 μg/ml, 24 h at 37° C.", "value": 0.53}, {"measurement": "killing at 60 µg/mL", "setting": "[2]; Vero, 60 μg/ml, 24 h at 37° C.", "value": 78.9, "unit": "%"}, {"measurement": "log reduction at 60 µg/mL", "setting": "[2]; Vero, 60 μg/ml, 24 h at 37° C.", "value": 0.68}, {"measurement": "killing at 150 µg/mL", "setting": "[2]; [9]", "value": 99.9, "unit": "%"}, {"measurement": "log reduction at 150 µg/mL", "setting": "[2]; [9]", "value": 3}, {"measurement": "T cell count after treatment", "setting": "[3]", "value": 720}, {"measurement": "lethal single dose", "setting": "[4]", "value": 2000, "unit": "mg/kg"}, {"measurement": "MTD", "setting": "[4]; mouse, in vivo, read-out: single dose easily tolerated", "value": "≥ 1200", "unit": "mg/kg"}, {"measurement": "fibrosarcoma cells killed", "setting": "[5]; 25 μg/ml (lowest dose), 48 h", "value": "virtually all fibrosarcoma cells were killed"}, {"measurement": "fibrosarcoma cells killed", "setting": "[5]; 100 μg/ml, 24 h", "value": "Virtually all fibrosarcoma cells were killed"}, {"measurement": "fibrosarcoma cells killed", "setting": "[5]; 150 μg/ml, 24 h", "value": "Virtually all fibrosarcoma cells were killed"}, {"measurement": "cytotoxicity at 50 µg/mL", "setting": "[5]; Homo sapiens, HT-1080, 24 h, read-out: cells killed", "value": "> 92", "unit": "%"}, {"measurement": "viability at 25 µg/mL", "setting": "[5]; [10]", "value": "0.03 ± 0.03", "unit": "%"}, {"measurement": "viability at 25 µg/mL", "setting": "[5]; [11]", "value": 0, "unit": "%"}, {"measurement": "viability at 50 µg/mL", "setting": "[5]; [10]", "value": "0.03 ± 0.03", "unit": "%"}, {"measurement": "viability at 50 µg/mL", "setting": "[5]; [11]", "value": 0, "unit": "%"}, {"measurement": "viability at 100 µg/mL", "setting": "[5]; Homo sapiens, 100 μg/ml, 24 h, control 92.3 ± 3.1", "value": 0, "unit": "%"}, {"measurement": "viability at 100 µg/mL", "setting": "[5]; Homo sapiens, 100 μg/ml, 48 h, control 92.4 ± 3.1", "value": 0, "unit": "%"}, {"measurement": "viability at 150 µg/mL", "setting": "[5]; Homo sapiens, 150 μg/ml, 24 h, control 92.3 ± 3.1", "value": 0, "unit": "%"}, {"measurement": "viability at 150 µg/mL", "setting": "[5]; Homo sapiens, 150 μg/ml, 48 h, control 92.4 ± 3.1", "value": 0, "unit": "%"}, {"measurement": "regrowth of tumors", "setting": "[6]; 5 months posttreatment", "value": "no signs of tumor regrowth; also recorded: regrowth of treated tumors did not occur for a period of 5 months"}, {"measurement": "palpable prostate tumors", "setting": "[6]; after 18 doses", "value": "palpable prostate tumors in the treated group could not be detected; also recorded: palpable tumors were not detectable in treated animals"}, {"measurement": "% TGI (percent tumor growth inhibition)", "setting": "[6]; alternate days, 18 doses", "value": 99.0, "unit": "%"}, {"measurement": "side effects such as weight loss, diarrhea, lethargy or discomfort", "setting": "[6]; alternate days, 18 doses", "value": "not observed; also recorded: No observable side effects"}, {"measurement": "Tumor Area", "setting": "[6]; alternate days, 18 doses, control 19.90 ± 7.1", "value": 0.0, "unit": "cm^2"}, {"measurement": "Tumor Volume", "setting": "[6]; alternate days, 18 doses, control 20.64 ± 7.01", "value": 0.0, "unit": "cm^3"}, {"measurement": "Animal Weight", "setting": "[6]; alternate days, 18 doses, control 28.5", "value": 29.3, "unit": "g"}, {"measurement": "tolerability and survival", "setting": "[7]; 400 mg/kg daily oral, 10 days", "value": "easily tolerated and all animals survived the treatment"}, {"measurement": "mortality", "setting": "[7]; 800 mg/kg daily oral", "value": "one animal died on day three and another died on day 10"}, {"measurement": "mortality", "setting": "[7]; 1000 mg/kg daily oral", "value": "one animal died on day 2, another on day 5 and a third animal died on day 10"}, {"measurement": "mortality", "setting": "[7]; 1200 mg/kg daily oral", "value": "all animals died on day 3"}, {"measurement": "tumors not detectable by palpation", "setting": "[8]", "value": "2 of 3"}]}]}
